The data set can be described thus: Pharmacokinetics of ginsenosides in plasma after a single oral dose of 6 g FRG or RG, crossover clinical trial. It is filed as in vivo, human. Particulars: for Tmax / AUC / Cmax / AUC(0-t): human, po; for AUC24 GMR (90% CI) / AUClast GMR (90% CI) / Cmax GMR (90% CI): geometric mean ratio FRG with respect to RG. How it is done:
This study was designed as a randomized, open-label, single-dose, 2-sequence, 2-period crossover study with a washout period of 2 weeks to compare the pharmacokinetic parameters of ginsenosides in RG and FRG. All subjects underwent a screening test for enrollment in the current study, and the enrolled subjects were randomly allocated into one of two sequence groups: sequence 1, and sequence 2. The subjects in sequence group 1 were administered 6 g of FRG extract with 200 mL water in the first period, and 6 g of RG extract with 200 mL water in the second period, after a washout period of 2 weeks from the first administration. Subjects in sequence group 2 were administered 6 g of RG extract with 200 mL water in the first period, and then 6 g of FRG extract with 200 mL water in the second period, after the same washout period. During each period, for groups 1 and 2, subjects were hospitalized at the clinical trial center of Kyung Hee University Hospital at 5 PM the day before FRG or RG administration. They received a standardized dinner and fasted, except for drinking water, until FRG or RG administration. The following day, subjects were administered FRG or RG at 8 AM according to the assigned sequence group, and were not allowed to eat until 1 PM. All participants were provided lunch and dinner by the study staff. They were discharged at 2 PM the day after dosing with FRG or RG, and visited the clinical trial center at 8 AM the day after discharge. To assess pharmacokinetic parameters, blood samples (9 mL) were serially collected into heparinized tubes just before (0 h) the dose of FRG or RG, and after the dose of FRG or RG at the following time points: 0.5, 1, 2, 3, 4, 5, 6, 7, 8, 10, 12, 14, 24, and 30 h during hospitalization, and 48 h at the outpatient visit. Blood samples were placed into heparinized tubes and centrifuged immediately at 3500× g, 10 min, and −4 °C. Plasma was stored at −70 °C.
CY, CK, PPD, PPT, and Rh2 were analyzed as previously described. An Agilent 1200 series (Agilent Technologies, Santa Clara, CA, USA) or Shimadzu Nexera X2 (Shimadzu, Tokyo, Japan), and Applied Biosystems MDS SCIEX API 4000 Triple Quadrupole Mass Spectrometer (SCIEX, Framingham, MA, USA) with an ESI source in the negative ion mode, were used. Data were analyzed and processed using the Analyst 1.6.2 program (SCIEX, Framingham, MA, USA). Rb1 and F2 were analyzed using Elute UHPLC (Bruker, Billerica, MA, USA) and an EVOQ Elite triple quadrupole mass spectrometer (Bruker, Billerica, MA, USA) with an ESI source in positive ion mode. Data were acquired and processed using the Analyst 1.6.2 program (SCIEX, Framingham, MA, USA), and Bruker Daltonic MS Workstation 8.2.1 (Bruker, Billerica, MA, USA). Ginsenosides standards (Rb1, Rh2 and C-Y) were provided by the Ambo Institute (Daejeon, Republic of Korea). Ginsenosides standards (F2, CK, PPD and PPT) were provided by Ace Enzyme (Kyunggi-do, Republic of Korea). Digoxin, diphenhydramine hydrochloride, formic acid, ammonium acetate, and dimethyl sulfoxide were purchased from Sigma Aldrich (Saint Louis, MO, USA). Methanol, acetonitrile, ethyl acetate, and methyl tertiary butyl ether were purchased from J.T. Baker (Philipsburg, NJ, USA) and purified water for HPLC analysis was obtained using AQUA max® by Younglin (Kyunggi-do, Republic of Korea) water purification system. The final concentrations of the calibration standards were 0.5, 1, 2, 5, 10, 25, and 50 ng/mL, and those of the QC samples were 1.5, 7.5, and 40 ng/mL. The final concentrations of the CK calibration standard were 5, 50, 250, 500, 1000, 1500, and 2500 ng/mL, and those of the QC samples were 15, 1200, and 2000 ng/mL. The human plasma samples were taken out of the −70 °C freezer and thawed at room temperature for the bioanalysis. […]

Setting [1] is: plasma, after 6 g FRG oral single dose, median (min, max), read-out: Tmax.
Where [2] appears, read: plasma, plasma, after 6 g FRG oral single dose, 0 to 24 h, mean ± SD, read-out: AUC24.
Setting [3] is: plasma, plasma, after 6 g FRG oral single dose, healthy volunteers, mean ± SD, n = 15, read-out: Cmax.
[4] abbreviates: plasma, plasma, after 6 g FRG oral single dose, mean ± SD, read-out: AUClast.
Where [5] appears, read: plasma, after 6 g RG oral single dose, median (min, max), read-out: Tmax.
The mark [6] stands for this setting: plasma, plasma, after 6 g RG oral single dose, 0 to 24 h, mean ± SD, read-out: AUC24.
The mark [7] stands for this setting: plasma, plasma, after 6 g RG oral single dose, healthy volunteers, mean ± SD, n = 15, read-out: Cmax.
[8] abbreviates: plasma, plasma, after 6 g RG oral single dose, mean ± SD, read-out: AUClast.

Where “and” joins values, the source holds several entries; their conditions need not be identical. Equal values may be shown once. Entries after “also recorded” stand apart in the source; their conditions may differ. Read-outs that look alike come from different tables or passages of the source. Marks after values point to notes of the source that are not given here.

Data on 7 compounds can be found in paper PMC9784495, “Pharmacokinetic Comparison of Ginsenosides between Fermented and Non-Fermented Red Ginseng in Healthy Volunteers” (Pharmaceutics, 2022).

A word on the Tmax: it is the time from dosing to the highest level. In general, Cmax refers to the peak of the concentration-time curve. Take `CC(C)=CCC[C@](C)(O[C@@H]1O[C@H](CO)[C@@H](O)[C@H](O)[C@H]1O)[C@H]1CC[C@]2(C)[C@@H]1[C@H](O)C[C@@H]1[C@@]3(C)CC[C@H](O[C@@H]4O[C@H](CO)[C@@H](O)[C@H](O)[C@H]4O)C(C)(C)[C@@H]3CC[C@]12C` [Ginsenoside F2]: for the setting “after 6 g RG, F2 except one subject”, the Plasma concentrations result is reported as “below the lower limit of quantification; also recorded: below the LLOQ”. Besides, the Tmax under setting [1] was determined as 4.03 h. Further, the AUC under setting [2] was 142 ± 34.3 ng·h/mL. Besides, the Cmax under setting [3] turned out to be 14.7 ± 3.58 ng/mL. Besides, under setting [4], the AUC(0-t) worked out at 168 ± 47.4 ng·h/mL.
For the compound `CC(C)=CCC[C@](C)(O)[C@H]1CC[C@]2(C)[C@@H]1[C@H](O)C[C@@H]1[C@@]3(C)CC[C@H](O)C(C)(C)[C@@H]3[C@@H](O)C[C@]12C` [PPT, protopanaxatriol], the “AUC24 GMR (90% CI)” value is 1.87 fold and 1.87 (1.16, 3.01) ^† fold; the “AUClast GMR (90% CI)” value was 1.76 fold and 1.76 (1.17, 2.65) ^† fold; the “Cmax GMR (90% CI)” value is 2.56 fold and 2.56 (1.83, 3.57) * fold. For the same compound, the Tmax under setting [1] was 6 h. The Tmax under setting [5] was 19 h. Further, the AUC under setting [2] stood at 63.7 ± 42.8 ng·h/mL. The Cmax under setting [3] amounted to 8.92 ± 5.38 ng/mL. Further, under setting [4], the AUC(0-t) was 83 ± 59.4 ng·h/mL. Moreover, the AUC under setting [6] amounted to 34.1 ± 24.7 ng·h/mL. Moreover, under setting [7], the Cmax came out at 3.5 ± 2 ng/mL. Further, under setting [8], the AUC(0-t) was 45.7 ± 32.1 ng·h/mL.
In turn, `CC(C)=CCC[C@](C)(O[C@@H]1O[C@H](CO[C@@H]2OC[C@H](O)[C@H](O)[C@H]2O)[C@@H](O)[C@H](O)[C@H]1O)[C@H]1CC[C@]2(C)[C@@H]1[C@H](O)C[C@@H]1[C@@]3(C)CC[C@H](O)C(C)(C)[C@@H]3CC[C@]12C` [CY, compound Y] returned an AUC (in vivo, AUC24) of 33.4 ± 9.82 ng·h/mL. In addition, the AUC(0-t) (in vivo, AUClast) was 32.5 ± 9.44 ng·h/mL. For the setting “in vivo, Cmax”, this compound displayed a Cmax of 8.38 ± 2.22 ng/mL. The Tmax (in vivo, Tmax) is 3.02 h.
As to `CC(C)=CCC[C@](C)(O[C@@H]1O[C@H](CO)[C@@H](O)[C@H](O)[C@H]1O)[C@H]1CC[C@]2(C)[C@@H]1[C@H](O)C[C@@H]1[C@@]3(C)CC[C@H](O)C(C)(C)[C@@H]3CC[C@]12C` [CK, compound K], the “AUC24 GMR (90% CI)” value was 64.86 fold and 64.86 (51.12, 82.29) * fold; the “AUClast GMR (90% CI)” value was 74.53 fold and 74.53 (59.32, 93.64) * fold; the “Cmax GMR (90% CI)” value is 69.23 fold and 69.23 (55.93, 85.69) * fold. Where the note is “FRG versus RG”, the “Difference of median Tmax, FRG higher than RG” value is reported as 1 h. Besides, under setting [1], the Tmax was determined as 3.02 h. For the same compound, the AUC under setting [2] came out at 8710 ± 2360 ng·h/mL. For the same compound, under setting [3], the Cmax worked out at 1550 ± 394 ng/mL. Under setting [4], the AUC(0-t) was 9440 ± 2620 ng·h/mL. For the same compound, under setting [6], the AUC turned out to be 158 ± 125 ng·h/mL. For the same compound, the Cmax under setting [7] worked out at 23.8 ± 12.2 ng/mL. Further, the AUC(0-t) under setting [8] worked out at 145 ± 106 ng·h/mL.
`CC(C)=CCC[C@](C)(O)[C@H]1CC[C@]2(C)[C@@H]1[C@H](O)C[C@@H]1[C@@]3(C)CC[C@H](O[C@@H]4O[C@H](CO)[C@@H](O)[C@H](O)[C@H]4O)C(C)(C)[C@@H]3CC[C@]12C` [Rh2]: the “AUC24 GMR (90% CI)” value is 18.17 fold and 18.17 (12.4, 26.62) * fold; the “AUClast GMR (90% CI)” value was 18.47 fold and 18.47 (12.74, 26.78) * fold; the “Cmax GMR (90% CI)” value is 20.27 fold and 20.27 (15.13, 27.17) * fold. In addition, the Tmax (in vivo, after 6 g FRG oral single dose, median (min, max), read-out: Tmax) was found to be 3.02 h. Besides, the time to peak (Tmax) (in vivo, after 6 g RG oral single dose, median (min, max), read-out: Tmax) is 3 h. Moreover, the AUC (in vivo, plasma, after 6 g FRG oral single dose, 0 to 24 h, mean ± SD, read-out: AUC24) was determined as 135 ± 44.4 ng·h/mL. Moreover, the Cmax (in vivo, plasma, after 6 g FRG oral single dose, healthy volunteers, mean ± SD, n = 15, read-out: Cmax) amounted to 33 ± 11.9 ng/mL. Besides, the AUC(0-t) (in vivo, plasma, after 6 g FRG oral single dose, mean ± SD, read-out: AUClast) was 133 ± 42.6 ng·h/mL. Also, the AUC (in vivo, plasma, after 6 g RG oral single dose, 0 to 24 h, mean ± SD, read-out: AUC24) came out at 8.97 ± 5.57 ng·h/mL. Further, the Cmax (in vivo, plasma, after 6 g RG oral single dose, healthy volunteers, mean ± SD, n = 15, read-out: Cmax) stood at 1.77 ± 1.17 ng/mL. Also, the AUC(0-t) (in vivo, plasma, after 6 g RG oral single dose, mean ± SD, read-out: AUClast) was found to be 8.35 ± 4.31 ng·h/mL.
With `CC(C)=CCC[C@](C)(O[C@@H]1O[C@H](CO[C@@H]2O[C@H](CO)[C@@H](O)[C@H](O)[C@H]2O)[C@@H](O)[C@H](O)[C@H]1O)[C@H]1CC[C@]2(C)[C@@H]1[C@H](O)C[C@@H]1[C@@]3(C)CC[C@H](O[C@@H]4O[C@H](CO)[C@@H](O)[C@H](O)[C@H]4O[C@@H]4O[C@H](CO)[C@@H](O)[C@H](O)[C@H]4O)C(C)(C)[C@@H]3CC[C@]12C` [Rb1], for the setting “after 6 g FRG”, the Plasma concentrations entry was “below the LLOQ”. The Tmax under setting [5] came to 8 h. Moreover, under setting [6], the AUC came out at 36.5 ± 25.6 ng·h/mL. In addition, the Cmax under setting [7] was 2.33 ± 1.61 ng/mL. The AUC(0-t) under setting [8] turned out to be 62.4 ± 48.1 ng·h/mL.
For `CC(C)=CCC[C@](C)(O)[C@H]1CC[C@]2(C)[C@@H]1[C@H](O)C[C@@H]1[C@@]3(C)CC[C@H](O)C(C)(C)[C@@H]3CC[C@]12C` [PPD, protopanaxadiol], the “AUClast GMR (90% CI)” value was 4.97 (2.38, 10.34) ^‡ fold. In addition, the Tmax under setting [1] was 12 h. Further, the Tmax under setting [5] turned out to be 27.1 h. Also, under setting [2], the AUC was determined as 48.7 ± 41.1 ng·h/mL. For the same compound, under setting [3], the Cmax is 5.65 ± 4.78 ng/mL. Moreover, the AUC(0-t) under setting [4] came out at 92.2 ± 96.5 ng·h/mL. Under setting [6], the AUC amounted to 13.9 ± 19.1 ng·h/mL. Besides, the Cmax under setting [7] came to 1.99 ± 1.62 ng/mL. Moreover, the AUC(0-t) under setting [8] is 20.3 ± 25.1 ng·h/mL.
